Data as given in PubChem BioAssay AID1259407 (Chemical Carcinogenesis Research Information System (CCRIS), 2018).
Activity calls are given as the source filed them. How the calls were made is not given here.

Tested on: CCRIS mutagenicity, Ames/micronucleus/aberration tests
Assay: CCRIS mutagenicity studies
Details: Test System: AMES SALMONELLA TYPHIMURIUM
[1] = Strain/Indicator: TA98, Metabolic Activation: NONE, Method: STANDARD PLATE
[2] = Strain/Indicator: TA98, Metabolic Activation: RAT, LIVER, S-9, AROCLOR 1254, Method: STANDARD PLATE
[3] = Strain/Indicator: TA100, Metabolic Activation: NONE, Method: STANDARD PLATE
[4] = Strain/Indicator: TA100, Metabolic Activation: RAT, LIVER, S-9, AROCLOR 1254, Method: STANDARD PLATE
[5] = Strain/Indicator: TA1535, Metabolic Activation: NONE, Method: STANDARD PLATE
[6] = Strain/Indicator: TA1535, Metabolic Activation: RAT, LIVER, S-9, AROCLOR 1254, Method: STANDARD PLATE
[7] = Strain/Indicator: TA1537, Metabolic Activation: NONE, Method: STANDARD PLATE
[8] = Strain/Indicator: TA1537, Metabolic Activation: RAT, LIVER, S-9, AROCLOR 1254, Method: STANDARD PLATE
[9] = Strain/Indicator: TA98, Metabolic Activation: NONE, Method: PREINCUBATION
[10] = Strain/Indicator: TA100, Metabolic Activation: NONE, Method: PREINCUBATION

Cc1ccc(N=Cc2cccc3cccnc23)c(C(=O)O)c1
mutagenic call [1]: inactive; negative | mutagenic call [2]: inactive; negative | mutagenic call [3]: inactive; negative | mutagenic call [4]: inactive; negative | mutagenic call [5]: inactive; negative | mutagenic call [6]: inactive; negative | mutagenic call [7]: inactive; negative | mutagenic call [8]: inactive; negative

O=c1oc2ccc([N+](=O)[O-])cc2c2ccccc12
mutagenic call (Strain/Indicator: TA98(1,8-DNP6), Metabolic Activation: NONE, Method: MICROSUSPENSION): active; positive | mutagenic call (Strain/Indicator: TA98(1,8-DNP6), Metabolic Activation: NONE, Method: PREINCUBATION): active; positive | mutagenic call (Strain/Indicator: TA98(1,8-DNP6), Metabolic Activation: NONE, Method: STANDARD PLATE): active; positive | mutagenic call (Strain/Indicator: TA98(NR), Metabolic Activation: NONE, Method: MICROSUSPENSION): active; positive | mutagenic call (Strain/Indicator: TA98(NR), Metabolic Activation: NONE, Method: PREINCUBATION): inactive; negative | mutagenic call (Strain/Indicator: TA98(NR), Metabolic Activation: NONE, Method: STANDARD PLATE): active; positive | mutagenic call (Strain/Indicator: TA98(NR), Metabolic Activation: RAT LIVER S-9 (15%), Method: PREINCUBATION): active; positive | mutagenic call (Strain/Indicator: TA98(NR), Metabolic Activation: RAT LIVER S-9, 3-METHYLCHOLANTHRENE (15%), Method: PREINCUBATION): active; positive | mutagenic call (Strain/Indicator: TA98(NR), Metabolic Activation: RAT LIVER S-9, BETA-NAPHTHAFLAVONE (15%), Method: PREINCUBATION): active; positive | mutagenic call (Strain/Indicator: TA98(NR), Metabolic Activation: RAT LIVER S-9, PCB (10%), Method: PREINCUBATION): active; positive | mutagenic call (Strain/Indicator: TA98(NR), Metabolic Activation: RAT LIVER S-9, PHENOBARBITAL (15%), Method: PREINCUBATION): active; positive | mutagenic call (Strain/Indicator: TA98(NR), Metabolic Activation: RAT, LIVER, S-9, AROCLOR 1254, Method: STANDARD PLATE): active; positive | mutagenic call (Strain/Indicator: TA98, Metabolic Activation: NONE, Method: MICROSUSPENSION): active; positive | mutagenic call [9]: active; positive | mutagenic call [1]: active; positive | mutagenic call (Strain/Indicator: TA98, Metabolic Activation: RAT, LIVER, S-9, AROCLOR 1254, Method: MICROSUSPENSION): active; positive | mutagenic call [2]: active; positive | mutagenic call (Strain/Indicator: TA100, Metabolic Activation: NONE, Method: MICROSUSPENSION): active; positive | mutagenic call [10]: active; positive | mutagenic call [3]: active; positive | mutagenic call (Strain/Indicator: TA100, Metabolic Activation: RAT LIVER S-9, 3-METHYLCHOLANTHRENE (15%), Method: PREINCUBATION): active; positive | mutagenic call (Strain/Indicator: TA100, Metabolic Activation: RAT, LIVER, S-9, AROCLOR 1254, Method: MICROSUSPENSION): active; positive | mutagenic call [4]: active; positive | mutagenic call [5]: active; positive | mutagenic call [6]: active; positive | mutagenic call [7]: active; positive | mutagenic call [8]: active; positive | mutagenic call (Strain/Indicator: TA1538, Metabolic Activation: NONE, Method: STANDARD PLATE): active; positive | mutagenic call (Strain/Indicator: TA1538, Metabolic Activation: RAT, LIVER, S-9, AROCLOR 1254, Method: STANDARD PLATE): active; positive | mutagenic call (Strain/Indicator: TA7001, Metabolic Activation: NONE, Method: PREINCUBATION): inactive; negative | mutagenic call (Strain/Indicator: TA7001, Metabolic Activation: RAT LIVER S-9, 3-METHYLCHOLANTHRENE (15%), Method: PREINCUBATION): inactive; negative | mutagenic call (Strain/Indicator: TA7002, Metabolic Activation: RAT LIVER S-9, 3-METHYLCHOLANTHRENE (15%), Method: PREINCUBATION): active; positive | mutagenic call (Strain/Indicator: TA7003, Metabolic Activation: NONE, Method: PREINCUBATION): inactive; negative | mutagenic call (Strain/Indicator: TA7003, Metabolic Activation: RAT LIVER S-9, 3-METHYLCHOLANTHRENE (15%), Method: PREINCUBATION): inactive; negative | mutagenic call (Strain/Indicator: TA7004, Metabolic Activation: RAT LIVER S-9, 3-METHYLCHOLANTHRENE (15%), Method: PREINCUBATION): active; positive | mutagenic call (Strain/Indicator: TA7005, Metabolic Activation: RAT LIVER S-9, 3-METHYLCHOLANTHRENE (15%), Method: PREINCUBATION): active; positive | mutagenic call (Strain/Indicator: TA7006, Metabolic Activation: NONE, Method: PREINCUBATION): inactive; negative | mutagenic call (Strain/Indicator: TA7006, Metabolic Activation: RAT LIVER S-9, 3-METHYLCHOLANTHRENE (15%), Method: PREINCUBATION): active; positive

CC(=O)OCc1ccccc1[N+](=O)[O-]
mutagenic call [9]: inactive; negative | mutagenic call [10]: inactive; negative | mutagenic call (Strain/Indicator: TA100, Metabolic Activation: RAT, LIVER, S-9, AROCLOR 1254, Method: PREINCUBATION): inactive; negative
